Results on four compounds are retold here after US11385229B2, “Amplification technology using dual enzyme cascade detection” (The Regents of the University of California, priority 2017, dated 2022).

Assay [1] addresses papain (Carica papaya, UniProt P00784). Conditions: BAPA as papain substrate; cited from earlier work.
Assay [2] concerns the target recombinant TEM-1 β-lactamase (Escherichia coli, UniProt P62593). As to conditions: recombinant TEM-1, absorbance 486 nm.
Source text: To verify the targeting capacity and establish the amplification capacity of thiophenol-β-lac, we first targeted the β-lactamase TEM-1, which mediates resistance to β-lactam antibiotics, such as ampicillin We compared the sensitivity of DETECT against the standard chromogenic β-lactamase probe nitrocefin (FIG. 3)^19. Recombinant TEM-1 activity was quantified by measuring the formation of the hydrolytic chromogenic products from DETECT or nitrocefin in a time-dependent manner with a microplate reader (DETECT hydrolytic product=405 nm, and nitrocefin hydrolytic product=486 nm).
(B) Time-dependent plot of β-lactamase activity assay performed with DETECT, where varied concentrations of recombinant TEM-1 were incubated with the DETECT system in a 96-well plate for 90 min. The absorbance at 405 nm was collected in 5 min intervals and plotted against time. (C) Photograph of color change caused from DETECT amplification in wells where TEM-1 was present at increasing concentrations from right to left. The rightmost well is a control well where all the components were incubated in the absence of TEM-1. (D) Time-dependent biochemical experiment where varied concentrations of TEM-1 were incubated with the standard β-lactamase probe nitrocefin in a 96-well plate, and the respective absorbance values were collected on a microplate reader (486 nm). […]
The test system of assay [3] is TEM-1-producing E. coli clinical isolate SF334. The assay is classed as cell-based. As to conditions: E. coli isolate SF334 (TEM-1).
Procedure: Whole-cell suspensions of SF334 were prepared as described above. First, we confirmed β-lactamase activity in the TEM-1-producing clinical isolate by incubating 10^6 CFU of SF334 with the DETECT components (FIG. 4A), then collecting absorbance values at 405 nm after 45, 60, 120, and 180 min of incubation. […] The analogous experiment was performed with nitrocefin, where whole-cell suspensions of SF334 and SF505 were incubated with nitrocefin. As indicated in the literature, samples were incubated with nitrocefin for up to only 30 min to minimize background signal associated with non-selective hydrolysis^14.
Subsequent studies were performed to establish the detection limit of DETECT relative to nitrocefin, by serially diluting isolate SF334 in 100-fold increments. […]
(A) Schematic representation of the experiments performed with E. coli clinical isolates, where bacterial suspensions were incubated with DETECT components thiophenol-β-lac, disulfide-protected papain, and BAPA in a 96-well plate. Following 1 h of incubation, the sample wells were analyzed with a microplate reader and the absorbance at 405 nm was collected. […] (C) Plot displaying the signal outputs generated by DETECT in the presence of varying quantities of SF334, which was carried out to define the signal threshold of DETECT compared to the current standard, nitrocefin. […]
For assay [4], the system named is E. coli clinical isolates. In words: standard susceptibility testing (disc diffusion). In kind it is cell-based. As to conditions: for standard susceptibility testing: E. coli isolate SF334 (blaTEM-1).
The test system of assay [5] is K. pneumoniae clinical isolates. Put plainly: standard susceptibility testing (disc diffusion). The assay is classed as cell-based.
The subject of assay [6] is E. coli isolated from CA-UTI urine samples. In words: susceptibility testing of E. coli cultured from CA-UTI urine samples. In kind it is cell-based. As to conditions: 23 of 34 E. coli from CA-UTI samples. As to the method: In order to establish the threshold Δλ405 of DETECT, that delineates β-lactam-susceptible from β-lactam-resistant urine samples, we simultaneously analyzed urine samples by traditional microbiology techniques as a standard for comparison (raw Δλ405 of DETECT values shown in Table S1). As such, urine samples were cultured for identification of E. coli, and E. coli isolates were tested for susceptibility to ampicillin and cephalexin. Samples were separated for analyses based on susceptibility or resistance to these agents, and an average Δλ405 value was calculated for each group. The average Δλ405 values corresponding to β-lactam-resistant and β-lactam-susceptible samples are shown in FIG. 5B, where the average Δλ405 of samples defined by traditional susceptibility analyses as resistant to ampicillin or cephalexin was 1.026, and the average Δλ405 in samples containing susceptible E. coli was 0.2990 (p=0.00048, two-tailed t-test). Finally, the threshold value was defined as 0.616, three standard deviations greater than the average Δλ405 of β-lactam-susceptible isolates. Therefore, samples with Δλ405>0.616 were defined as “positive” by DETECT (or resistant to early-generation β-lactams), and samples with Δλ405<0.616 were defined as “negative” by DETECT (or susceptible to β-lactams), the latter of which would qualify for treatment with an early-generation β-lactam. […]

Setting [7] is: E. coli isolate BE30, β-lactamase gene SHV-1.
[8] abbreviates: E. coli isolate BE115, β-lactamase gene OXA-1.
[9] abbreviates: E. coli isolate BE372, β-lactamase gene TEM-1 (1b).
Setting [10] is: E. coli isolate BE527, β-lactamase gene SHV-1.
Setting [11] is: E. coli isolate BE1004, β-lactamase gene TEM-1 (1c).
Setting [12] is: E. coli isolate BE1173, β-lactamase gene TEM-1 (1b).
Setting [13] is: E. coli isolate BE1335, β-lactamase gene SHV-1.
Setting [14] is: E. coli isolate BR2, β-lactamase gene KPC-2.
[15] abbreviates: E. coli isolate SF105, β-lactamase gene TEM-1.
The mark [16] stands for this setting: E. coli isolate SF141, β-lactamase gene CMY-2.
The mark [17] stands for this setting: E. coli isolate SF148, β-lactamase gene CTX-M-14.
The mark [18] stands for this setting: E. coli isolate SF207, β-lactamase gene CMY-2.
Where [19] appears, read: E. coli isolate SF384, β-lactamase gene ND.
The mark [20] stands for this setting: E. coli isolate SF410, β-lactamase gene CTX-M-15.
Setting [21] is: E. coli isolate SF487, β-lactamase gene CTX-M-14.
Setting [22] is: E. coli isolate SF674, β-lactamase gene CTX-M-15.
Where [23] appears, read: K. pneumoniae isolate ATCC 700603, β-lactamase gene SHV-18 (ESBL).
The mark [24] stands for this setting: K. pneumoniae isolate BR1, β-lactamase gene SHV-185.
The mark [25] stands for this setting: K. pneumoniae isolate BR27, β-lactamase gene SHV-11.
Where [26] appears, read: K. pneumoniae isolate BR28, β-lactamase gene KPC-2, SHV-11.
The mark [27] stands for this setting: K. pneumoniae isolate BR45, β-lactamase gene SHV-38/168.
[28] abbreviates: K. pneumoniae isolate BR50, β-lactamase gene SHV-62.
The mark [29] stands for this setting: K. pneumoniae isolate BR52, β-lactamase gene SHV-132.
Where [30] appears, read: K. pneumoniae isolate BR313, β-lactamase gene SHV-83/187.
[31] abbreviates: K. pneumoniae isolate SF412, β-lactamase gene ND.
Where [32] appears, read: K. pneumoniae isolate SF519, β-lactamase gene ND.

Structures are written as SMILES.

Sequence of recombinant TEM-1 β-lactamase (P62593 24-286 limits assumed): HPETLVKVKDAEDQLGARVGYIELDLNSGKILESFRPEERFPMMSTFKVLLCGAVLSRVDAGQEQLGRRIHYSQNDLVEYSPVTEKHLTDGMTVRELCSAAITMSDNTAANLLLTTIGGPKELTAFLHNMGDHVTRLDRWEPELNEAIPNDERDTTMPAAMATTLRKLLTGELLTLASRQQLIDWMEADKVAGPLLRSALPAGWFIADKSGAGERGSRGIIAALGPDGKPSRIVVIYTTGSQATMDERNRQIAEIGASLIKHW
Sequence of papain (P00784 134-345): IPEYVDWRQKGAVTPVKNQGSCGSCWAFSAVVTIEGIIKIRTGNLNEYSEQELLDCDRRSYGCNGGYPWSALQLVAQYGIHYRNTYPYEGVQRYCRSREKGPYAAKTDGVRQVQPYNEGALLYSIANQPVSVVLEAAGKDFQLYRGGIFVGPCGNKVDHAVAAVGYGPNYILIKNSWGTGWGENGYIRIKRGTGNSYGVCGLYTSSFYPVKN

As to `N=C(N)NCCC[C@H](NC(=O)c1ccccc1)C(=O)Nc1ccc([N+](=O)[O-])cc1` [BAPA, N-benzoyl-L-arginine-p-nitroaniline], the “KCAT value with papain” value in assay [1] is 0.7 to 0.8 s⁻¹.

With `O=C(Cc1cccs1)N[C@@H]1C(=O)N2C(C(=O)O)=C(/C=C/c3ccc([N+](=O)[O-])cc3[N+](=O)[O-])CS[C@H]12` [nitrocefin], the “limit of detection of TEM-1” value in assay [2] was 4 nM. The “suspension of SF334 needed to identify β-lactamase activity above background” value in assay [3] is recorded as 10^7 CFU/mL.

With `CC1=C(C(=O)O)N2C(=O)[C@@H](NC(=O)[C@H](N)c3ccccc3)[C@H]2SC1` [Cephalexin, cephalexin], the Cephalexin susceptibility entry was “S” in assay [4] (setting [7]); “S” in assay [4] (setting [8]); “R” in assay [4] (setting [9]); “S” in assay [4] (setting [10]); “S” in assay [4] (setting [11]); “S” in assay [4] (setting [12]). Moreover, the Cephalexin susceptibility entry in assay [4] (setting [13]) is given as “S”; in assay [4] (setting [14]) it was “R”; in assay [4] (setting [15]), “R”; in assay [4] (setting [16]), “R”; in assay [4] (setting [17]), “R”; in assay [4] (setting [18]), “R”. The Cephalexin susceptibility result in assay [4] (setting [19]) was “S”; in assay [4] (setting [20]), “R”; in assay [4] (setting [21]), “R”; in assay [4] (setting [22]), “R”; in assay [5] (setting [23]) it was “R”; in assay [5] (setting [24]) it was “S”. In addition, the Cephalexin susceptibility result was “S” in assay [5] (setting [25]); “R” in assay [5] (setting [26]); “S” in assay [5] (setting [27]); “S” in assay [5] (setting [28]); “S” in assay [5] (setting [29]); “S” in assay [5] (setting [30]). Also, the Cephalexin susceptibility entry in assay [5] (setting [31]) and in assay [5] (setting [32]) was “S” throughout. Moreover, in assay [4], the standard susceptibility testing result is on record as “resistance”.

Regarding `CC1(C)S[C@@H]2[C@H](NC(=O)[C@H](N)c3ccccc3)C(=O)N2[C@H]1C(=O)O` [Ampicillin, ampicillin], the “E. coli isolates susceptible” value in assay [6] was determined as 68%. The Ampicillin susceptibility result in assay [4] (setting [7]), in assay [4] (setting [8]), in assay [4] (setting [9]), in assay [4] (setting [10]), in assay [4] (setting [11]) and in assay [4] (setting [12]) was “R” throughout. The Ampicillin susceptibility entry in assay [4] (setting [13]), in assay [4] (setting [14]), in assay [4] (setting [15]), in assay [4] (setting [16]), in assay [4] (setting [17]) and in assay [4] (setting [18]) was “R” in each case. Besides, the Ampicillin susceptibility entry was “S” in assay [4] (setting [19]); “R” in assay [4] (setting [20]); “R” in assay [4] (setting [21]); “R” in assay [4] (setting [22]); “R” in assay [5] (setting [23]); “R” in assay [5] (setting [24]). The Ampicillin susceptibility result in assay [5] (setting [25]), in assay [5] (setting [26]), in assay [5] (setting [27]), in assay [5] (setting [28]), in assay [5] (setting [29]) and in assay [5] (setting [30]) was “R” each time. Besides, the Ampicillin susceptibility result in assay [5] (setting [31]) and in assay [5] (setting [32]) was “S” throughout. Further, in assay [4], the standard susceptibility testing entry is on record as “resistance”.
